# Results from patent publication US20250051321A1, “TRICYCLIC DERIVATIVE AND PREPARATION METHOD THEREFOR AND APPLICATION THEREOF” (SHANGHAI JEMINCARE PHARMACEUTICAL CO., LTD., priority 2021, published 2025).
# Read-outs that look alike come from different tables or passages of the source.
# System: plasma LPA 18:1 and LPA 18:2
# Assay: Human plasma ex vivo assay (LPA 18:1 / 18:2 by LC-MS/MS)
# Type: biochemical
# Conditions: 37° C., 2 hours
# Description: The collected plasma was centrifuged at 4000 rpm for 15 minutes at 4° C. The supernatant was aliquoted into a 96-well plate (25 μL per well), sealed, and frozen at −80° C. for further use.
# LPA 17:0 powder was dissolved in a mixed solution of water: isopropanol: formic acid (1:1:1) to a final concentration of […]. The mixture was aliquoted and frozen at −20° C.
# 1 volume of formic acid was added to 1000× methanol, mixed well, and stored at 4° C. a) The 96-well plate containing frozen plasma was removed from the −80° C. freezer and thawed on ice at room temperature. b) 6 μL of 50× LPA 17:0 (internal standard) and 264 μL of 0.1% FA were added to a clean well of the 96-well plate; the final concentration of LPA 17:0 (internal standard) was 50 nM. c) 6× compound was 1:3 serially diluted to a total of 8 concentrations, and 5 μL of the compound per well was added to the 96-well plate containing plasma. The maximum final concentration of the compound was 10 μM, and the final concentration of DMSO was 0.1%. The plate was centrifuged at 300 rpm for 30 seconds. The DMSO control sample reacted for 0 hours was used as the minimum value (Min), and the DMSO control sample reacted for 2 hours was used as the maximum value (Max). […]
# d) The DMSO sample reacted for 0 hours was rapidly transferred to 0.1% FA solution containing the internal standard in step b) to terminate the reaction and precipitate plasma proteins. e) The 96-well plate containing plasma and compounds was rapidly incubated in a 37° C. incubator for 2 hours. After the incubation, 6 μL of 10× LPA 17:0 and 264 μL of 0.1% FA were added to each well to terminate the reaction and precipitate plasma proteins. […]
# f) All the samples were mixed well with a pipette, and centrifuged at 4000 rpm for 10 minutes at 4° C. 150 μL of the supernatant was added to a 96-well U-bottom plate (Thermo 267245), sealed with silica gel, and then loaded. The contents of LPA 18:1 and LPA 18:2 in the samples were detected by LC-MS/MS system.
# LPA 18:1(or 18:2) relative content=LPA 18:1(or 18:2) peak area/LPA 17:0 peak area Percentage reduction (%) in plasma LPA18:1(or 18:2)=(Max−X)/(Max−Min)*100 Max: LPA 18:1 (or 18:2) relative content of the DMSO sample reacted for 2 hours Min: LPA 18:1 (or 18:2) relative content of the DMSO sample reacted for 0 hours X: LPA 18:1 (or 18:2) relative content of the sample after compound treatment for 2 hours The IC50 of the compounds was calculated by fitting a nonlinear regression through percentage reduction in plasma LPA 18:1 (or 18:2) and log value of compound concentration using the software GraphPad Prism 8.
# Y=Bottom+(Top−Bottom)/(1+10^((Log IC50−X)*Hill Slope))
# [1] = LPA 18:1, read-out: Human plasma ex vivo assay IC50 (18:1 LPA)
# [2] = LPA 18:2, read-out: Human plasma ex vivo assay IC50 (18:2 LPA)
IC50 [1] [µM],IC50 [2] [µM],SMILES
0.584,0.356,CN(c1nc(-c2ccc(F)cc2)c(C#N)s1)c1c2c(nc3c(F)cc(N4CC5(CCN(CC(=O)N6CC(O)C6)CC5)C4)cc13)C(O)CC2 (centres unmarked) [Example E45]
0.371,0.308,CN(c1nc(-c2ccc(F)cc2)c(C#N)s1)c1c2c(nc3c(F)cc(N4CC5(CN(C(=O)C(C)(C)O)C5)C4)cc13)C(=O)CC2 [Example E36]
0.373,0.489,"Cc1cc(N2CC3(CN(C(=O)C(C)(C)O)C3)C2)nc2c(N(C)c3nc(-c4ccc(F)cc4)c(C#N)s3)c3c(nc12)[C@H](O)CC3 (single isomer, unassigned) [Example E32-b]"
0.298,0.271,CN(c1nc(-c2ccc(F)cc2)c(C#N)s1)c1c2c(nc3c(F)cc(N4CC5(CN(C(=O)CN6CC[C@H](O)C6)C5)C4)cc13)C(O)CC2 (some centres unmarked) [Example E28]
0.24,0.405,CN(c1nc(-c2ccc(F)cc2)c(C#N)s1)c1c2c(nc3c(F)cc(N4CC5(CN(C(=O)C6(C)CCOC6)C5)C4)cc13)C(O)CC2 (centres unmarked) [Example E59]
0.165,0.15,COC(C)(C)C(=O)N1CC2(C1)CN(c1cc(F)c3nc4c(c(N(C)c5nc(-c6ccc(F)cc6)c(C#N)s5)c3c1)CCC4O)C2 (centres unmarked) [Example E30]
0.74,0.671,CN(c1nc(-c2ccc(F)cc2)c(C#N)s1)c1c2c(nc3c(F)cc(N4CCC5(CCN(CC(=O)N6CC(O)C6)CC5)C4)cc13)C(O)CC2 (centres unmarked) [Example E48]
0.725,0.483,"CN(c1nc(-c2ccc(F)cc2)c(C#N)s1)c1c2c(nc3c(F)cc(N4CC5(CN(C(=O)[C@@H]6CCCO6)C5)C4)cc13)[C@@H](O)CC2 (single isomer, unassigned) [Example E54-a]"
0.499,0.44,CN(c1nc(-c2ccc(F)cc2)c(C#N)s1)c1c2c(nc3c(F)cc(N4CC5(CN(C(=O)C6CCOC6=O)C5)C4)cc13)C(O)CC2 (centres unmarked) [Example E56]
0.437,0.409,CN(c1nc(-c2ccc(F)cc2)c(C#N)s1)c1c2c(nc3c(F)cc(N4CC5(CN(C(=O)CN6CC(O)C6)C5)C4)cc13)C(O)CC2 (centres unmarked) [Example E47]
0.194,0.206,CN(c1nc(-c2ccc(F)cc2)c(C#N)s1)c1c2c(nc3ccc(N4CCN(CC(=O)N5CC(O)C5)CC4)nc13)COC2 [Example A13]
0.332,0.576,CN(c1nc(-c2ccc(F)cc2)c(C#N)s1)c1c2c(nc3c(F)cc(N4CC5(CN(C(=O)C6CCC(=O)O6)C5)C4)cc13)C(O)CC2 (centres unmarked) [Example E62]
0.305,0.295,CN(c1nc(-c2ccc(F)cc2)c(C#N)s1)c1c2c(nc3c(F)cc(N4CCN(CC(=O)N5CC[C@H](O)C5)CC4)cc13)C(O)CC2 (some centres unmarked) [Example E41]
0.263,0.271,CN(c1nc(-c2ccc(F)cc2)c(C#N)s1)c1c2c(nc3c(F)cc(N4CC5(CN(C(=O)C6CC(O)C6)C5)C4)cc13)C(O)CC2 (centres unmarked) [Example E58]
0.222,0.164,CN(c1nc(-c2ccc(F)cc2)c(C#N)s1)c1c2c(nc3c(F)cc(N4CC5(CN(CC(=O)N6CC[C@@H](O)C6)C5)C4)cc13)C(O)CC2 (some centres unmarked) [Example E31]
0.183,0.171,CN(c1nc(-c2ccc(F)cc2)c(C#N)s1)c1c2c(nc3c(F)cc(N4CC5(CN(CC(=O)N6CC(O)C6)C5)C4)cc13)C(O)CC2 (centres unmarked) [Example E57]
0.67,0.423,CN(c1nc(-c2ccc(F)cc2)c(C#N)s1)c1c2c(nc3c(F)cc(N4CC5(CN(C(=O)C6(N)CCOC6)C5)C4)cc13)C(O)CC2 (centres unmarked) [Example E52]
0.412,0.469,CN1CCC(F)(C(=O)N2CC3(C2)CN(c2cc(F)c4nc5c(c(N(C)c6nc(-c7ccc(F)cc7)c(C#N)s6)c4c2)CCC5O)C3)C1 (centres unmarked) [Example E42]
0.232,0.221,CN(c1nc(-c2ccc(F)cc2)c(C#N)s1)c1c2c(nc3ccc(N4CC5(CN(C(=O)C(C)(C)O)C5)C4)nc13)CC2 [Example C24]
